Assay results as given in paper PMC9741454, “Selective Structural Derivatization of Flavonoid Acetamides Significantly Impacts Their Bioavailability and Antioxidant Properties” (Molecules, 2022).
Values joined by “and” are separate entries in the source; they are usually repeats but may differ in a detail not shown here. Equal entries are not always repeated.

What was measured:
[1] = In vitro bioavailability by dialysis tubing procedure (pepsin then pancreatin digestion); format: in vitro ADME; conditions: for % bioavailability after phase 1 (pepsin digestion) / % bioavailability after phase 2 (pancreatin digestion): in vitro, dialysis tubing, average of three trials ± SD; for % bioavailability after phase 1 (pepsin digestion): 2 h pepsin digestion, pH 1.0, 37 °C; for % bioavailability after phase 2 (pancreatin digestion): 4 h pancreatin digestion, pH 7.0, 37 °C; for Total in vitro bioavailability: sum of phase 1 and phase 2 % bioavailability; as to % bioavailability after phase 1 (pepsin digestion): tested at 69.8 µM
Protocol: The in vitro bioavailability studies of the flavonoid acetamide derivatives were done in simulated gastric and intestinal fluids using the dialysis tubing procedure, as previously reported. The procedure involves two consecutive digestion stages: phase 1, which is a 2-h pepsin-based digestion followed by phase 2, which is a 4-h pancreatin based digestion. This procedure was adopted from Chimento, Adele, et al. (2013) and Grande, Fedora, et al. (2016).
Phase 1: Pepsin digestion, 2 h
The flavonoid acetamide derivatives were dissolved in dimethyl sulfoxide (DMSO) to achieve a concentration of 1.00 × 10^−3 M. The porcine pepsin was prepared to achieve 2.40 × 10^4 U porcine pepsin per 1.00 × 10^−3 L of solution. The sodium cholate solution was prepared to attain a final concentration of 2.00 w/v% while hydrochloric acid was prepared at a concentration of 8.50 × 10^−1 N, for immediate use.
The pepsin digestion phase was completed in 120 min. Into an oven dried test tube, a 1.00 mL of the newly prepared porcine pepsin solution was added, followed by 300 µL of the flavonoid acetamide solution. These two solutions were mixed prior to the addition of 3.00 mL of a fresh batch of the sodium cholate solution. The resultant solution was appropriately mixed and transferred into a dialysis tubing, which was subsequently sealed on both ends. The dialysis tubing was immersed into a freshly prepared 0.85 N hydrochloric acid solution (pH 1.0). The flask and its contents were incubated in a shaking water bath at a regulated temperature of 37 ± 0.5 °C. After 120 min, 3.00 mL of the liquid in the flask was obtained for UV-Vis analysis. The dialysis tubing was carefully recovered and readied for the second stage of the experiment, phase 2. Each sample experiment was done in triplicates.
Phase 2: Pancreatin digestion, 4 h
The following solutions were prepared for immediate use: a solution containing 8.00 × 10^−1 N sodium bicarbonate with […] of porcine pancreatin per 1.00 mL of solution. The dialysis tubing recovered following the pepsin digestion was carefully opened on one end and for the addition of […] of esterase and 1.30 mL of the fresh batch of the NaHCO3 solution. These contents were appropriately mixed, and the dialysis tubing was suitably sealed and immersed in a flask with PBS buffer (at pH 7.0). The flask was incubated for 4 h, in a shaking water bath at a regulated temperature of 37 ± 0.5 °C. At the end of the experiment, a 3.00 mL sample of the liquid in the flask was obtained for UV-Vis analysis. All sample experiments in this phase were done in triplicates.
The calibration curve for each flavonoid acetamide derivative was prepared at both pH 1.0 and pH 7.0. The triplicate samples obtained from both phase 1 and phase 2 of the digestions were characterized using UV-Vis; the data obtained was applied to the equations obtained from the calibration curves to calculate the amount of the flavonoid acetamide derivatives in the recovered samples. The percentage (%) of the recovered flavonoid acetamide derivative for each sample after both pepsin digestion (phase 1) and pancreatin digestion (phase 2) was calculated relative to the total flavonoid content used. Thus, the (%) bioavailability was determined from Equation (1) below. (1) % Bioavailability=Recovered Content/Total Content×100
The total in vitro bioavailability was defined as the sum of the % bioavailability after phase 1 and % bioavailability after phase 2 of the digestion, as shown in Equation (2). The final reported in vitro bioavailability value was the average of the three trials ± the standard deviation. (2) Total Bioavailability=phase 1 bioavailability+phase 2 bioavailability
The bioavailability of the flavonoid acetamides was determined using our previously reported in vitro dialysis tubing procedure. […]

[2] = DPPH free radical scavenging assay; conditions: relative IC50, 30 min in the dark, absorbance at 517 nm, methanolic DPPH
Protocol: The stock solutions of the flavonoid acetamide derivatives were prepared in dimethyl sulfoxide. A fresh batch of 50 µM DPPH radical solution was prepared in methanol. The DPPH free radical scavenging activities of the flavonoid acetamide derivatives were determined using our previously reported literature procedure.
Into an amber vial, 1.00 × 10^2 µL solution of the flavonoid acetamide derivative in dimethyl sulfoxide was added into a 3.00 × 10^3 µL of a fresh batch of methanolic DPPH solution. This reaction mixture was incubated, away from light, for half an hour. The absorbance of the resultant solution was read on a UV-Vis spectrophotometer, λmax = 517 nm. This experiment was done across several concentrations to obtain the concentration-based antioxidant activity data which was subsequently used to calculate the relative half-maximal inhibitory concentration (IC50) values.
Given the observed variation of the stability of the DPPH free radical across different solvent vehicles, the stability of the DPPH free radicals was established in both methanol and dimethyl sulfoxide solvents. The percentage DPPH free radical scavenging activity of the flavonoid acetamide derivatives was computed against dimethyl sulfoxide, as per Equation (3). (3) % DPPH RSA=Absorbance of control−Absorbance of sample /Absorbance of control×100
Absorbance control is the absorbance of the blank methanolic DPPH sample with DMSO. The absorbance values were obtained at λmax = 517 nm.
The % RSA obtained was plotted and used to obtain the relative half-maximal inhibitory concentration (IC50) values, which were double confirmed using verified online computational tools.
The 2,2-diphenyl-1-picrylhydrazyl (DPPH) assay was used to evaluate the free radical scavenging capacity of the flavonoid acetamide derivatives. This assay is based on the colorimetric quantification of the DPPH free radicals. The reaction of the DPPH radicals with an antioxidant compound results in the loss of the DPPH free radical properties. The loss of the DPPH free radical properties is identifiable through a color change; a discoloration marked by the formation of a yellow color from the initial violet color. Slight antioxidant activity may be visually imperceptible; such a change may still be monitored spectrophotometrically through UV-Vis analysis at λmax = 517 [40, 44, 45].
The ability of the flavonoid acetamide derivatives to scavenge the DPPH free radicals is influenced by the concentration of both the flavonoid acetamide derivative and the DPPH free radicals, the reaction time, and presence of light during the reaction. The reaction time was set at 30 min and the concentration of the DPPH free radicals was […]. The concentration of the flavonoid acetamide derivatives was varied and the experiment was carried out in the dark. The actual concentration of the DPPH free radical before the addition of the flavonoid acetamide derivative was used as the standard for the purposes of the estimation of the DPPH free radical scavenging effect. The decrease in the DPPH free radical concentration upon the addition of the flavonoid acetamide derivative was used to calculate the antioxidant activity of the flavonoid acetamide derivatives. Thus, the greater the decrease in the DPPH free radical concentration, the higher the antioxidant activity. The antioxidant activity was expressed as the % RSA. […]

Row | SMILES | % bioavailability after phase 1 (pepsin digestion) [1] | % bioavailability after phase 2 (pancreatin digestion) [1] | Total in vitro bioavailability [1] | IC50 [2] [µM]
1 | NC(=O)COc1cc(O)c2c(=O)c(OCC(N)=O)c(-c3ccc(OCC(N)=O)c(OCC(N)=O)c3)oc2c1 [Compound 4, 2,2′-((4-(3,7-bis(2-amino-2-oxoethoxy)-5-hydroxy-4-oxo-4H-chromen-2-yl)-1,2-phenylene)bis(oxy))diacetamide] | 6.70% and 6.70 ± 0.03% | 9.26% and 9.26 ± 0.05% | 15.97% and 15.97 ± 0.04% | 31.5
2 | NC(=O)COc1ccc(-c2cc(=O)c3c(O)cc(OCC(N)=O)cc3o2)cc1 [Compound 11, 2-(4-(7-(2-amino-2-oxoethoxy)-5-hydroxy-4-oxo-4H-chromen-2-yl)phenoxy)acetamide] | 9.98% and 9.98 ± 0.10% | 9.30% and 9.30 ± 0.09% | 19.28% and 19.28 ± 0.19% | 93.7
3 | NC(=O)COc1cc(OCC(N)=O)c2c(=O)c(OCC(N)=O)c(-c3ccc4c(c3)OCCO4)oc2c1 [Compound 7, 2,2′,2″-((2-(2,3-dihydrobenzo[b][1,4]dioxin-6-yl)-4-oxo-4H-chromene-3,5,7-triyl)tris(oxy))triacetamide] | 16.11% and 16.11 ± 0.11% | 22.01% and 22.01 ± 0.21% | 38.12 ± 0.16% and 38.12% | 59.2
4 | NC(=O)COc1cc(O)c2c(=O)cc(-c3ccc(OCC(N)=O)c(OCC(N)=O)c3)oc2c1 [Compound 15, 2,2′-((4-(7-(2-amino-2-oxoethoxy)-5-hydroxy-4-oxo-4H-chromen-2-yl)-1,2-phenylene)bis(oxy))diacetamide] | 12.51% and 12.51 ± 0.02% | 18.01% and 18.01 ± 0.26% | 30.51% and 30.51 ± 0.27% | 47.1
5 | CCOC(=O)COc1cc(OCC(N)=O)cc2oc(-c3ccc(OCC(N)=O)c(OCC(N)=O)c3)c(OCC(N)=O)c(=O)c12 [Compound 5, ethyl 2-((3,7-bis(2-amino-2-oxoethoxy)-2-(3,4-bis(2-amino-2-oxoethoxy)phenyl)-4-oxo-4H-chromen-5-yl)oxy)acetate] | 11.52% and 11.52 ± 0.02% | 13.14% and 13.14 ± 0.01% | 24.66% and 24.66 ± 0.01% | 198
